This is an account of results in patent US8785692B2, “Substituted phenylamidines and the use thereof as fungicides” (priority 2007, dated 2014).

A word on the logP: it is the decadic logarithm of the partition coefficient of the neutral form, usually between octanol and water. Low values mean a more hydrophilic compound, high ones a more lipophilic compound.

Read-outs that look alike come from different tables or passages of the source.

The series can be described thus: logP (neutral / acidic, pH 2.3).

Turning to `CCN(C)C=Nc1cc(C)c(/C(C)=N/OC(C)C)cc1C` [Compound 10, N-ethyl-N′-{4-[(1E)-N-isopropoxyethanimidoyl]-2,5-dimethylphenyl}-N-methylimidoformamide], the logP is 4.42. For the setting “pH 2.3”, this molecule yielded a logP of 1.92.

For `CCN(C)C=Nc1cc(C)c(/C(C)=N/OC)cc1C` [Compound 24, N-ethyl-N′-{4-[(1E)-N-methoxyethanimidoyl]-2,5-dimethylphenyl}-N-methylimidoformamide], the lipophilicity (logP) was found to be 3.33. This molecule also came in with a logP (pH 2.3) of 1.38.

Regarding `CCN(C)C=Nc1cc(C)c(/C=N/OCc2ccc3c(c2)OCOC3)cc1C` [Compound 4, N′-(4-{(E)-[(4H-1,3-benzodioxin-7-ylmethoxy)imino]methyl}-2,5-dimethylphenyl)-N-ethyl-N-methylimidoformamide], the log partition coefficient (logP) worked out at 4.71. In addition, the logP (pH 2.3) is 2.02.

`CCN(C)C=Nc1cc(C)c(/C(C)=N/CCCC(C)(C)C)cc1C` [Compound 46, N′-{4-[(1E)-N-(4,4-dimethylpentyl)ethanimidoyl]-2,5-dimethylphenyl}-N-ethyl-N-methylimido-formamide] showed a logP of 4.75. The same molecule displayed a logP (pH 2.3) of 1.79.

The molecule `CCN(C)C=Nc1cc(C)c(/C(C)=N/OCC(C)C)cc1C` [Compound 13, N-ethyl-N′-{4-[(1E)-N-isobutoxyethanimidoyl]-2,5-dimethylphenyl}-N-methylimidoformamide] showed a logP of 4.98. Also, the lipophilicity (logP) (pH 2.3) worked out at 2.22.

`C=CCO/N=C(\C)c1cc(C)c(N=CN(C)CC)cc1C` [Compound 35, N′-{4-[(1E)-N-(allyloxy)ethanimidoyl]-2,5-dimethylphenyl}-N-ethyl-N-methylimidoformamide] came in with a lipophilicity (logP) of 4.02. Besides, the logP (pH 2.3) is 1.72.

In turn, `CCN(C)C=Nc1cc(C)c(/C(C)=N/OC(C)c2ccc(Cl)cc2)cc1C` (stereo not drawn) [Compound 38, N′-(4-{(1E)-N-[1-(4-chlorophenyl)ethoxy]ethanimidoyl}-2,5-dimethylphenyl)-N-ethyl-N-methylimidoformamide] gave a logP of 5.67. Also, the logP (pH 2.3) was 2.46.

Molecule “N-(2,5-dimethyl-4-{(E)-[1-phenylethoxy]ethanimidoyl}phenyl)-N-ethyl-N-methylimidoformamide [Compound 27]” showed a logP acidic (acidic) of 2.39. Where the note is “neutral”, the logP neutral is on record as 5.09.

For `CCN(C)C=Nc1cc(C)c(/C(C)=N/OCOCCOC)cc1C` [Compound 18, N′-{2,5-dimethyl-4-[(1E)-1-methyl-3,5,8-trioxa-2-azanon-1-en-1-yl]phenyl}-N-ethyl-N-methylimidoformamide], the lipophilicity (logP) stood at 3.05. The logP (pH 2.3) came to 1.43.

With `Cc1cc(C=O)c(C)cc1N` [4-Amino-2,5-dimethylbenzaldehyde], for the setting “pH 2.3”, the lipophilicity (logP) was 1.34.

Turning to `CCN(C)C=Nc1cc(C)c(/C(C)=N/OC(C)(C)C)cc1C` [Compound 9, N-ethyl-N′-{4-[(1E)-N-tert-butoxyethanimidoyl]-2,5-dimethylphenyl}-N-methylimidoformamide], the logP amounted to 5.17. In addition, for the setting “pH 2.3”, the logP amounted to 2.19.

The molecule `CCN(C)C=Nc1cc(C)c(/C=N/OCC2CC2)cc1C` [Compound 47, N′-(4-{(E)-[(cyclopropylmethoxy)imino]methyl}-2,5-dimethylphenyl)-N-ethyl-N-methylimidoformamide] yielded a lipophilicity (logP) of 3.95. Further, the logP (pH 2.3) is 1.67.

As to `Cc1cc(C=NOCc2ccccc2)c(C)cc1N` [4-(Benzyloxyiminomethyl)-2,5-dimethylaniline], the lipophilicity (logP) (pH 2.3) turned out to be 4.22.

As for `CCO/N=C(\C)c1cc(C)c(N=CN(C)CC)cc1C` [Compound 23, N-ethyl-N′-{4-[(1E)—N-ethoxyethanimidoyl]-2,5-dimethylphenyl}-N-methylimidoformamide], the logP was determined as 3.86. Moreover, the logP (pH 2.3) was 1.6.

Consider `Cc1cc(C=NOC(C)C)c(C)cc1N` [4-(Isopropoxyiminomethyl)-2,5-dimethylaniline], for which the logP (pH 2.3) came to 2.77.
